# Assay results taken from patent US3970648A, “2-[2-(5-Nitro-2-furyl)vinyl]-4-(anilino)quinazolines” (Diamond Shamrock Corporation, priority 1974, dated 1976).
# Key:
# Type in all cases: cell-based
# Staphylococcus aureus = assay: Bactericide test, Staphylococcus aureus (agar streak plate); details: Staphylococcus aureus
# Outline: (§1)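 Compounds in Triton X-155/acetone emulsifier (basic formulation 320 ppm, diluted serially) were mixed 2:8 into molten nutrient-tryptic soy agar, then organisms streaked on the set plates. After 48 hr at 28°C, growth was scored visually against untreated agar as 0%, 50% (sparse, separated colonies) or 100% control (no visible colonies).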
# Streptococcus agalactiae = assay: Bactericide test, Streptococcus agalactiae (agar streak plate)
# Outline: (§2)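 Compounds were formulated with Triton X-155/acetone emulsifier (basic formulation 320 ppm, serially diluted) and mixed 2:8 into molten nutrient-tryptic soy agar. Organisms were streaked onto the plates and incubated 48 hr at 28°C. Growth inhibition was scored visually against untreated agar as 0, 50 or 100% control.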
# Escherichia coli = assay: Bactericide test, Escherichia coli (agar streak plate)
# Text: Test formulations were examined for bactericidal and/or bacteriostatic activity against the test organisms shown in Tables A and B. These organisms were chosen as being representative of commercially important pathogens affecting animal agriculture. The antibiotic chlortetracycline was chosen as a positive control, since it has a broad spectrum of activity against a large number of organisms, and its activity can be used for comparative purposes.
# Basic test formulations of the product of Examples I, II, III, and of chlortetracycline were prepared by dissolving 16 mg (0.016 g) in 2.0 ml of stock emulsifier solution (0.25% Triton X-155 in acetone by volume) and making each solution up to 50 ml with deionized water. The concentration of the test compound in the basic formulation was 320 ppm. Lower concentrations of the test compound were obtained by diluting the basic formulation with a 4% solution of the stock emulsifier in deionized water so that each dilution in the series differed only in test compound content.
# Nutrient-tryptic soy agar (NTA) consisting of 2.0% Difco Bactoagar 0.8% nutrient broth (Difco), and 0.5% tryptic soy broth (Difco) was prepared and sterilized by autoclaving. A 2 ml aliquot of each test formulation was added to 8 ml of molten NTA. This mixture was then plated in a sterile polystyrene petri dish (100 × 15 mm). After the agar was set, suspensions of each of the test organisms were simultaneously streaked onto the surface of the agar. The inoculated plates were incubated for 48 hr at 28°C. The inhibition of growth of each organism was rated by visual comparison with the organism developing on non-treated agar. Growth inhibition reported as per cent control was rated in three categories as follows: 0% control, growth equivalent to that on non-treated agar; 50% control, sparse development and separated colonies; 100% control, no visible growth or development of colonies.
# Test formulations of the product of Example IV were examined for bactericidal and/or bacteriostatic activity against the test organisms shown in Table B using the Bactericide Test described in Example V. The inhibition of organism growth with each diluted test formulation was rated visually by comparison with the organism developing on a non-treated control agar plate. Growth inhibition reported as per cent control was rated in three categories as follows: 0% control, growth equivalent to that on non-treated agar; 50% control is sparse development and separated colonies; and 100% control, development of individual colonies was not apparent.
# Salmonella cholerasuis = assay: Bactericide test, Salmonella cholerasuis (agar streak plate); details: Salmonella
# Outline: as §1
# Salmonella gallinarum = assay: Bactericide test, Salmonella gallinarum (agar streak plate); details: Salmonella enterica, GALLINARUM
# Outline: as §1
# Streptococcus group E = assay: Bactericide test, Streptococcus group E (agar streak plate)
# Outline: as §2
# Vibrio coli = assay: Bactericide test, Vibrio coli (agar streak plate)
# Outline: as §2
# Salmonella typhimurium = assay: Bactericide test, Salmonella typhimurium (agar streak plate); details: Salmonella enterica, TYPHIMURIUM
# Outline: as §2
# [1] = system: Erysipelothrix rhusiopathiae; assay: Bactericide test, Erysipelothrix rhusiopathiae (agar streak plate)
# Outline: as §2
# [2] = system: Bordetella bronchiseptica; assay: Bactericide test, Bordetella bronchiseptica (agar streak plate)
# Outline: as §2
# Streptococcus faecalis = assay: Bactericide test, Streptococcus faecalis (agar streak plate)
# Outline: as §1
# [3] = 100% inhibition at lower concentrations
structure (smiles),measurement,setting,value
"O=[N+]([O-])c1ccc(C=Cc2nc(Nc3cccc(O)c3)c3ccccc3n2)o1 [Example II, 2-[2-(5-nitro-2-furyl)vinyl]-4-(m-hydroxyanilino)quinazoline]",inhibition at 0.125 ppm,Staphylococcus aureus; 0.125 ppm,0%
same,inhibition at 0.25 ppm,Staphylococcus aureus; 0.25 ppm,0%
same,inhibition at 0.5 ppm,Staphylococcus aureus; 0.5 ppm,0%
same,inhibition at 1 ppm,"Staphylococcus aureus; 1 ppm, read-out: % Inhibition",0%
same,inhibition at 2 ppm,Staphylococcus aureus; 2 ppm,0%
same,inhibition at 4 ppm,"Staphylococcus aureus; 4 ppm, read-out: % Inhibition",0%
same,inhibition at 8 ppm,Staphylococcus aureus; 8 ppm,0%
same,inhibition at 16 ppm,"Staphylococcus aureus; 16 ppm, read-out: % Inhibition",0%
same,inhibition at 32 ppm,Staphylococcus aureus; 32 ppm,0%
same,inhibition at 64 ppm,"Staphylococcus aureus; 64 ppm, read-out: % Inhibition",0%
same,effectiveness compared with chlortetracycline (in words),Streptococcus agalactiae; [3],considerably more effective
same,inhibition at 0.125 ppm,"Streptococcus agalactiae; Streptococcus agalactiae, 0.125 ppm",100%
same,inhibition at 0.25 ppm,"Streptococcus agalactiae; Streptococcus agalactiae, 0.25 ppm",100%
same,inhibition at 0.5 ppm,"Streptococcus agalactiae; Streptococcus agalactiae, 0.5 ppm",100%
same,inhibition at 1 ppm,"Streptococcus agalactiae; Streptococcus agalactiae, 1 ppm, read-out: % Inhibition",100%
same,inhibition at 2 ppm,"Streptococcus agalactiae; Streptococcus agalactiae, 2 ppm",100%
same,inhibition at 4 ppm,"Streptococcus agalactiae; Streptococcus agalactiae, 4 ppm, read-out: % Inhibition",100%
same,inhibition at 8 ppm,"Streptococcus agalactiae; Streptococcus agalactiae, 8 ppm",100%
same,inhibition at 16 ppm,"Streptococcus agalactiae; Streptococcus agalactiae, 16 ppm, read-out: % Inhibition",100%
same,inhibition at 32 ppm,"Streptococcus agalactiae; Streptococcus agalactiae, 32 ppm",100%
same,inhibition at 64 ppm,"Streptococcus agalactiae; Streptococcus agalactiae, 64 ppm, read-out: % Inhibition",100%
same,inhibition at 0.125 ppm,Escherichia coli; 0.125 ppm,0%
same,inhibition at 0.25 ppm,Escherichia coli; 0.25 ppm,0%
same,inhibition at 0.5 ppm,Escherichia coli; 0.5 ppm,0%
same,inhibition at 1 ppm,"Escherichia coli; 1 ppm, read-out: % Inhibition",0%
same,inhibition at 2 ppm,Escherichia coli; 2 ppm,0%
same,inhibition at 4 ppm,"Escherichia coli; 4 ppm, read-out: % Inhibition",0%
same,inhibition at 8 ppm,Escherichia coli; 8 ppm,0%
same,inhibition at 16 ppm,"Escherichia coli; 16 ppm, read-out: % Inhibition",0%
same,inhibition at 32 ppm,Escherichia coli; 32 ppm,0%
same,inhibition at 64 ppm,"Escherichia coli; 64 ppm, read-out: % Inhibition",0%
same,inhibition at 0.125 ppm,Salmonella cholerasuis; 0.125 ppm,0%
same,inhibition at 0.25 ppm,Salmonella cholerasuis; 0.25 ppm,0%
same,inhibition at 0.5 ppm,Salmonella cholerasuis; 0.5 ppm,0%
same,inhibition at 1 ppm,"Salmonella cholerasuis; 1 ppm, read-out: % Inhibition",0%
same,inhibition at 2 ppm,Salmonella cholerasuis; 2 ppm,0%
same,inhibition at 4 ppm,"Salmonella cholerasuis; 4 ppm, read-out: % Inhibition",0%
same,inhibition at 8 ppm,Salmonella cholerasuis; 8 ppm,0%
same,inhibition at 16 ppm,"Salmonella cholerasuis; 16 ppm, read-out: % Inhibition",0%
same,inhibition at 32 ppm,Salmonella cholerasuis; 32 ppm,0%
same,inhibition at 64 ppm,"Salmonella cholerasuis; 64 ppm, read-out: % Inhibition",0%
same,inhibition at 0.125 ppm,Salmonella gallinarum; 0.125 ppm,0%
same,inhibition at 0.25 ppm,Salmonella gallinarum; 0.25 ppm,0%
same,inhibition at 0.5 ppm,Salmonella gallinarum; 0.5 ppm,0%
same,inhibition at 1 ppm,Salmonella gallinarum; 1 ppm,0%
same,inhibition at 2 ppm,Salmonella gallinarum; 2 ppm,0%
same,inhibition at 4 ppm,Salmonella gallinarum; 4 ppm,0%
same,inhibition at 8 ppm,Salmonella gallinarum; 8 ppm,0%
same,inhibition at 16 ppm,Salmonella gallinarum; 16 ppm,0%
same,inhibition at 32 ppm,Salmonella gallinarum; 32 ppm,0%
same,inhibition at 64 ppm,Salmonella gallinarum; 64 ppm,0%
same,inhibition at 0.125 ppm,Streptococcus group E; 0.125 ppm,100%
same,inhibition at 0.25 ppm,Streptococcus group E; 0.25 ppm,100%
same,inhibition at 0.5 ppm,Streptococcus group E; 0.5 ppm,100%
same,inhibition at 1 ppm,"Streptococcus group E; 1 ppm, read-out: % Inhibition",100%
same,inhibition at 2 ppm,Streptococcus group E; 2 ppm,100%
same,inhibition at 4 ppm,"Streptococcus group E; 4 ppm, read-out: % Inhibition",100%
same,inhibition at 8 ppm,Streptococcus group E; 8 ppm,100%
same,inhibition at 16 ppm,"Streptococcus group E; 16 ppm, read-out: % Inhibition",100%
same,inhibition at 32 ppm,Streptococcus group E; 32 ppm,100%
same,inhibition at 64 ppm,"Streptococcus group E; 64 ppm, read-out: % Inhibition",100%
same,effectiveness compared with chlortetracycline (in words),Streptococcus group E; [3],considerably more effective
same,effectiveness compared with chlortetracycline (in words),Vibrio coli; [3],considerably more effective
same,inhibition at 0.125 ppm,"Vibrio coli; Campylobacter coli, 0.125 ppm",100%
same,inhibition at 0.25 ppm,"Vibrio coli; Campylobacter coli, 0.25 ppm",100%
same,inhibition at 0.5 ppm,"Vibrio coli; Campylobacter coli, 0.5 ppm",100%
same,inhibition at 1 ppm,"Vibrio coli; Campylobacter coli, 1 ppm",100%
same,inhibition at 2 ppm,"Vibrio coli; Campylobacter coli, 2 ppm",100%
same,inhibition at 4 ppm,"Vibrio coli; Campylobacter coli, 4 ppm",100%
same,inhibition at 8 ppm,"Vibrio coli; Campylobacter coli, 8 ppm",100%
same,inhibition at 16 ppm,"Vibrio coli; Campylobacter coli, 16 ppm",100%
same,inhibition at 32 ppm,"Vibrio coli; Campylobacter coli, 32 ppm",100%
same,inhibition at 64 ppm,"Vibrio coli; Campylobacter coli, 64 ppm",100%
same,inhibition at 0.125 ppm,Salmonella typhimurium; 0.125 ppm,0%
same,inhibition at 0.25 ppm,Salmonella typhimurium; 0.25 ppm,0%
same,inhibition at 0.5 ppm,Salmonella typhimurium; 0.5 ppm,0%
same,inhibition at 1 ppm,"Salmonella typhimurium; 1 ppm, read-out: % Inhibition",0%
same,inhibition at 2 ppm,Salmonella typhimurium; 2 ppm,0%
same,inhibition at 4 ppm,"Salmonella typhimurium; 4 ppm, read-out: % Inhibition",0%
same,inhibition at 8 ppm,Salmonella typhimurium; 8 ppm,0%
same,inhibition at 16 ppm,"Salmonella typhimurium; 16 ppm, read-out: % Inhibition",0%
same,inhibition at 32 ppm,Salmonella typhimurium; 32 ppm,0%
same,inhibition at 64 ppm,"Salmonella typhimurium; 64 ppm, read-out: % Inhibition",0%
same,effectiveness compared with chlortetracycline (in words),[1]; [3],considerably more effective
same,inhibition at 0.125 ppm,"[1]; Erysipelothrix rhusiopathiae, 0.125 ppm",100%
same,inhibition at 0.25 ppm,"[1]; Erysipelothrix rhusiopathiae, 0.25 ppm",100%
same,inhibition at 0.5 ppm,"[1]; Erysipelothrix rhusiopathiae, 0.5 ppm",100%
same,inhibition at 1 ppm,"[1]; Erysipelothrix rhusiopathiae, 1 ppm",100%
same,inhibition at 2 ppm,"[1]; Erysipelothrix rhusiopathiae, 2 ppm",100%
same,inhibition at 4 ppm,"[1]; Erysipelothrix rhusiopathiae, 4 ppm",100%
same,inhibition at 8 ppm,"[1]; Erysipelothrix rhusiopathiae, 8 ppm",100%
same,inhibition at 16 ppm,"[1]; Erysipelothrix rhusiopathiae, 16 ppm",100%
same,inhibition at 32 ppm,"[1]; Erysipelothrix rhusiopathiae, 32 ppm",100%
same,inhibition at 64 ppm,"[1]; Erysipelothrix rhusiopathiae, 64 ppm",100%
same,effectiveness compared with chlortetracycline (in words),[2]; [3],considerably more effective
same,inhibition at 0.125 ppm,"[2]; Bordetella bronchiseptica, 0.125 ppm",0%
same,inhibition at 0.25 ppm,"[2]; Bordetella bronchiseptica, 0.25 ppm",0%
same,inhibition at 0.5 ppm,"[2]; Bordetella bronchiseptica, 0.5 ppm",0%
same,inhibition at 1 ppm,"[2]; Bordetella bronchiseptica, 1 ppm, read-out: % Inhibition",0%
same,inhibition at 2 ppm,"[2]; Bordetella bronchiseptica, 2 ppm",0%
same,inhibition at 4 ppm,"[2]; Bordetella bronchiseptica, 4 ppm, read-out: % Inhibition",0%
same,inhibition at 8 ppm,"[2]; Bordetella bronchiseptica, 8 ppm",0%
same,inhibition at 16 ppm,"[2]; Bordetella bronchiseptica, 16 ppm, read-out: % Inhibition",100%
same,inhibition at 32 ppm,"[2]; Bordetella bronchiseptica, 32 ppm",100%
same,inhibition at 64 ppm,"[2]; Bordetella bronchiseptica, 64 ppm, read-out: % Inhibition",100%
same,effectiveness compared with chlortetracycline (in words),Streptococcus faecalis; [3],considerably more effective
same,inhibition at 0.125 ppm,"Streptococcus faecalis; Enterococcus faecalis, 0.125 ppm",0%
same,inhibition at 0.25 ppm,"Streptococcus faecalis; Enterococcus faecalis, 0.25 ppm",50%
same,inhibition at 0.5 ppm,"Streptococcus faecalis; Enterococcus faecalis, 0.5 ppm",100%
same,inhibition at 1 ppm,"Streptococcus faecalis; Enterococcus faecalis, 1 ppm, read-out: % Inhibition",100%
same,inhibition at 2 ppm,"Streptococcus faecalis; Enterococcus faecalis, 2 ppm",100%
same,inhibition at 4 ppm,"Streptococcus faecalis; Enterococcus faecalis, 4 ppm, read-out: % Inhibition",100%
same,inhibition at 8 ppm,"Streptococcus faecalis; Enterococcus faecalis, 8 ppm",100%
same,inhibition at 16 ppm,"Streptococcus faecalis; Enterococcus faecalis, 16 ppm, read-out: % Inhibition",100%
same,inhibition at 32 ppm,"Streptococcus faecalis; Enterococcus faecalis, 32 ppm",100%
same,inhibition at 64 ppm,"Streptococcus faecalis; Enterococcus faecalis, 64 ppm, read-out: % Inhibition",100%
